According to ChEMBL document CHEMBL2440076, “New triarylpyrazoles as broad-spectrum anticancer agents: design, synthesis, and biological evaluation” (Eur J Med Chem, 2013):

Experiments:
Assay type in all cases: functional
NCI-H522 = assay: Growth inhibition of human NCI-H522 cells assessed as cell growth at 5X10'-8 M after 48 hrs by sulforhodamine B assay; conditions: NCI-H522, 48 h, read-out: Activity
MOLT-4 = assay: Growth inhibition of human MOLT4 cells assessed as cell growth at 5X10'-8 M after 48 hrs by sulforhodamine B assay; conditions: MOLT-4, 48 h, read-out: Activity
A498 = assay: Growth inhibition of human A498 cells assessed as cell growth at 5X10'-9 M after 48 hrs by sulforhodamine B assay; conditions: A498, 48 h, read-out: Activity
IGROV-1 = assay: Growth inhibition of human IGROV1 cells assessed as cell growth at 5X10'-6 M after 48 hrs by sulforhodamine B assay; conditions: IGROV-1, 48 h, read-out: Activity
NCI-H226 [1] = assay: Growth inhibition of human NCI-H226 cells assessed as cell growth at 5X10'-9 M after 48 hrs by sulforhodamine B assay; conditions: NCI-H226, 48 h, read-out: Activity
ACHN = assay: Growth inhibition of human ACHN cells assessed as cell growth at 5X10'-9 M after 48 hrs by sulforhodamine B assay; conditions: read-out: Activity
786-0 = assay: Growth inhibition of human 786-0 cells assessed as cell growth at 5X10'-5 M after 48 hrs by sulforhodamine B assay; conditions: 786-0, 48 h, read-out: Activity
MCF7 [2] = assay: Growth inhibition of human MCF7 cells assessed as cell growth at 5X10'-9 M after 48 hrs by sulforhodamine B assay; conditions: MCF7, 48 h, read-out: Activity
MCF7 [3] = assay: Growth inhibition of human MCF7 cells assessed as cell growth at 5X10'-5 M after 48 hrs by sulforhodamine B assay; conditions: MCF7, 48 h, read-out: Activity
MDA-MB-231 = assay: Growth inhibition of human MDA-MB-231 cells assessed as cell growth at 5X10'-6 M after 48 hrs by sulforhodamine B assay; conditions: MDA-MB-231, 48 h, read-out: Activity
NCI-H226 [4] = assay: Growth inhibition of human NCI-H226 cells assessed as cell growth at 5X10'-5 M after 48 hrs by sulforhodamine B assay; conditions: NCI-H226, 48 h, read-out: Activity
TK-10 [5] = assay: Growth inhibition of human TK10 cells assessed as cell growth at 5X10'-8 M after 48 hrs by sulforhodamine B assay; conditions: TK-10, 48 h, read-out: Activity
CCRF-CEM [6] = assay: Growth inhibition of human CCRF-CEM cells assessed as cell growth at 5X10'-7 M after 48 hrs by sulforhodamine B assay; conditions: read-out: Activity
SN12C = assay: Growth inhibition of human SN12C cells assessed as cell growth at 5X10'-7 M after 48 hrs by sulforhodamine B assay; conditions: read-out: Activity
HL-60(TB) = assay: Growth inhibition of human HL-60(TB) cells assessed as cell growth at 5X10'-6 M after 48 hrs by sulforhodamine B assay; conditions: HL-60, 48 h, read-out: Activity
TK-10 [7] = assay: Growth inhibition of human TK10 cells assessed as cell growth at 5X10'-9 M after 48 hrs by sulforhodamine B assay; conditions: TK-10, 48 h, read-out: Activity
A549 [8] = assay: Growth inhibition of human A549/ATCC cells assessed as cell growth at 5X10'-6 M after 48 hrs by sulforhodamine B assay; conditions: A549, 48 h, read-out: Activity
CCRF-CEM [9] = assay: Growth inhibition of human CCRF-CEM cells assessed as cell growth at 5X10'-8 M after 48 hrs by sulforhodamine B assay; conditions: read-out: Activity
A549 [10] = assay: Growth inhibition of human A549/ATCC cells assessed as cell growth at 5X10'-5 M after 48 hrs by sulforhodamine B assay; conditions: A549, 48 h, read-out: Activity
OVCAR-3 = assay: Growth inhibition of human OVCAR3 cells assessed as cell growth at 5X10'-7 M after 48 hrs by sulforhodamine B assay; conditions: OVCAR-3, 48 h, read-out: Activity
HCT-15 = assay: Growth inhibition of human HCT15 cells assessed as cell growth at 5X10'-5 M after 48 hrs by sulforhodamine B assay; conditions: HCT-15, 48 h, read-out: Activity
COLO 205 = assay: Growth inhibition of human COLO205 cells assessed as cell growth at 5X10'-5 M after 48 hrs by sulforhodamine B assay; conditions: COLO 205, 48 h, read-out: Activity
HT-29 [11] = assay: Growth inhibition of human HT-29 cells assessed as cell growth at 5X10'-8 M after 48 hrs by sulforhodamine B assay; conditions: HT-29, 48 h, read-out: Activity
SNB-75 = assay: Growth inhibition of human SNB75 cells assessed as cell growth at 5X10'-7 M after 48 hrs by sulforhodamine B assay; conditions: SNB-75, 48 h, read-out: Activity
SK-MEL-28 = assay: Growth inhibition of human SK-MEL-28 cells assessed as cell growth at 5X10'-8 M after 48 hrs by sulforhodamine B assay; conditions: SK-MEL-28, 48 h, read-out: Activity
MDA-MB-468 = assay: Growth inhibition of human MDA-MB-468 cells assessed as cell growth at 5X10'-9 M after 48 hrs by sulforhodamine B assay; conditions: MDA-MB-468, 48 h, read-out: Activity
SR = assay: Growth inhibition of human SR cells assessed as cell growth at 5X10'-9 M after 48 hrs by sulforhodamine B assay; conditions: read-out: Activity
CAKI-1 = assay: Growth inhibition of human CAKI-1 cells assessed as cell growth at 5X10'-5 M after 48 hrs by sulforhodamine B assay; conditions: CAKI-1, 48 h, read-out: Activity
SW-620 = assay: Growth inhibition of human SW620 cells assessed as cell growth at 5X10'-7 M after 48 hrs by sulforhodamine B assay; conditions: SW-620, 48 h, read-out: Activity
MCF7 [12] = assay: Growth inhibition of human MCF7 cells assessed as cell growth at 5X10'-7 M after 48 hrs by sulforhodamine B assay; conditions: MCF7, 48 h, read-out: Activity
HT-29 [13] = assay: Growth inhibition of human HT-29 cells assessed as cell growth at 5X10'-6 M after 48 hrs by sulforhodamine B assay; conditions: HT-29, 48 h, read-out: Activity
M14 [14] = assay: Growth inhibition of human M14 cells assessed as cell growth at 5X10'-6 M after 48 hrs by sulforhodamine B assay; conditions: M14, 48 h, read-out: Activity
[15] = Growth inhibition of human Hs 578T cells assessed as cell growth at 5X10'-6 M after 48 hrs by sulforhodamine B assay; conditions: read-out: Activity
TK-10 [16] = assay: Growth inhibition of human TK10 cells assessed as cell growth at 5X10'-7 M after 48 hrs by sulforhodamine B assay; conditions: TK-10, 48 h, read-out: Activity
KM12 = assay: Growth inhibition of human KM12 cells assessed as cell growth at 5X10'-6 M after 48 hrs by sulforhodamine B assay; conditions: KM12, 48 h, read-out: Activity
NCI-H23 = assay: Growth inhibition of human NCI-H23 cells assessed as cell growth at 5X10'-8 M after 48 hrs by sulforhodamine B assay; conditions: NCI-H23, 48 h, read-out: Activity
M14 [17] = assay: Growth inhibition of human M14 cells assessed as cell growth at 5X10'-9 M after 48 hrs by sulforhodamine B assay; conditions: M14, 48 h, read-out: Activity

Compound	growth at 0.05 µM (NCI-H522) [%]	growth at 0.05 µM (MOLT-4) [%]	growth at 0.005 µM (A498) [%]	growth at 5 µM (IGROV-1) [%]	growth at 0.005 µM (NCI-H226 [1]) [%]	growth at 0.005 µM (ACHN) [%]	growth at 50 µM (786-0) [%]	growth at 0.005 µM (MCF7 [2]) [%]	growth at 50 µM (MCF7 [3]) [%]	growth at 5 µM (MDA-MB-231) [%]	growth at 50 µM (NCI-H226 [4]) [%]	growth at 0.05 µM (TK-10 [5]) [%]	growth at 0.5 µM (CCRF-CEM [6]) [%]	growth at 0.5 µM (SN12C) [%]	growth at 5 µM (HL-60(TB)) [%]	growth at 0.005 µM (TK-10 [7]) [%]	growth at 5 µM (A549 [8]) [%]	growth at 0.05 µM (CCRF-CEM [9]) [%]	growth at 50 µM (A549 [10]) [%]	growth at 0.5 µM (OVCAR-3) [%]	other results
O=C(Nc1cccc(-n2cc(-c3ccncc3)c(-c3ccc(Cl)c(O)c3)n2)c1)c1ccc(N2CCOCC2)c(C(F)(F)F)c1	94	94	92	68	98	102	-53	89	12	8	58	92	81	97	39	94	39	100	4	106	growth at 50 µM (HCT-15): -7%; growth at 50 µM (COLO 205): 65%; growth at 0.05 µM (HT-29 [11]): 101%; growth at 0.5 µM (SNB-75): 72%; growth at 0.05 µM (SK-MEL-28): 102%; growth at 0.005 µM (MDA-MB-468): 95%; growth at 0.005 µM (SR): 94%; growth at 50 µM (CAKI-1): -15%; growth at 0.5 µM (SW-620): 106%; growth at 0.5 µM (MCF7 [12]): 78%; growth at 5 µM (HT-29 [13]): 79%; growth at 5 µM (M14 [14]): 18%; growth at 5 µM [15]: 25%; growth at 0.5 µM (TK-10 [16]): 97%; growth at 5 µM (KM12): 25%; growth at 0.05 µM (NCI-H23): 93%; growth at 0.005 µM (M14 [17]): 96%
COc1cc(-c2nn(-c3cccc(NC(=O)Nc4cccc(C(F)(F)F)c4)c3)cc2-c2ccncc2)ccc1Cl	91	92	92	-22	100	104	-22	94	-8	-35	7	93	69	80	4	94	3	102	1	56	growth at 50 µM (HCT-15): -29%; growth at 50 µM (COLO 205): -89%; growth at 0.05 µM (HT-29 [11]): 99%; growth at 0.5 µM (SNB-75): 81%; growth at 0.05 µM (SK-MEL-28): 100%; growth at 0.005 µM (MDA-MB-468): 93%; growth at 0.005 µM (SR): 93%; growth at 50 µM (CAKI-1): -21%; growth at 0.5 µM (SW-620): 79%; growth at 0.5 µM (MCF7 [12]): 60%; growth at 5 µM (HT-29 [13]): -54%; growth at 5 µM (M14 [14]): -54%; growth at 5 µM [15]: 4%; growth at 0.5 µM (TK-10 [16]): 79%; growth at 5 µM (KM12): -37%; growth at 0.05 µM (NCI-H23): 95%; growth at 0.005 µM (M14 [17]): 96%
COc1cc(-c2nn(-c3cccc(NC(=O)c4cccc(C(F)(F)F)c4)c3)cc2-c2ccncc2)ccc1Cl	92	98	78	22	95	103	3	94	9	9	-7	97	88	92	16	95	19	98	9	98	growth at 50 µM (HCT-15): 8%; growth at 50 µM (COLO 205): -72%; growth at 0.05 µM (HT-29 [11]): 96%; growth at 0.5 µM (SNB-75): 79%; growth at 0.05 µM (SK-MEL-28): 102%; growth at 0.005 µM (MDA-MB-468): 94%; growth at 0.005 µM (SR): 96%; growth at 50 µM (CAKI-1): 17%; growth at 0.5 µM (SW-620): 89%; growth at 0.5 µM (MCF7 [12]): 81%; growth at 5 µM (HT-29 [13]): 5%; growth at 5 µM (M14 [14]): 11%; growth at 5 µM [15]: 2%; growth at 0.5 µM (TK-10 [16]): 108%; growth at 5 µM (KM12): 14%; growth at 0.05 µM (NCI-H23): 90%; growth at 0.005 µM (M14 [17]): 95%
